Measured values: patent publication US9102648B1, “Bioavailable diacylhydrazine ligands for modulating the expression of exogenous genes via an ecdysone receptor complex” (Intrexon Corporation, priority 2003, dated 2015)

What was measured:
[1] = molecular target: GAL4 DBD-CfEcR(DEF)/VP16AD-MmRXRE (Choristoneura fumiferana, UniProt O77240); assay: 13B3 Assay (CHO stable cell line, luciferase reporter); conditions: for Fold Induction, 13B3 Assay, 3.3 uM: 3.3 uM ligand; for Fold Induction, 13B3 Assay, 3.3 uM / Fold Induction, 13B3 Assay, 33 uM: RLU ligand treated / RLU DMSO treated cells; for Fold Induction, 13B3 Assay, 3.3 uM / Fold Induction, 13B3 Assay, 33 uM / EC50: average of two wells; for Fold Induction, 13B3 Assay, 33 uM: 33 uM ligand; for 13B3 assay Rel Max FI: maximum fold induction at any concentration relative to that of GS-E ligand, CHO 13B3 cells; for EC50: read-out: 13B3 EC50, CHO 13B3 stable cell line, luciferase reporter, 48 h
Summary of the method: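 Ligands dosed at 8 levels from 33 to 0.01 μM (DMSO stocks diluted 300-fold) onto the 13B3 CHO line carrying GAL4-DBD/CfEcR-DEF, VP16/MmRXR-DE and a GAL4-responsive luciferase gene.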

[2] = molecular target: T1, Bombyx mori EcR (VP16 fusion, CVBE switch construct) (Bombyx mori, UniProt P49881); assay: Z3 Assay (HEK-293 cells with CVBE and 6XEcRE LacZ, β-galactosidase reporter); conditions: for Fold Induction, Z3 Assay, 3.3 uM: 3.3 uM ligand; for Fold Induction, Z3 Assay, 3.3 uM / Fold Induction, Z3 Assay, 33 uM: ligand treated / DMSO treated cells; for Fold Induction, Z3 Assay, 3.3 uM / Fold Induction, Z3 Assay, 33 uM / EC50: average of two wells; for Fold Induction, Z3 Assay, 33 uM: 33 uM ligand; for Z3 assay Rel Max FI: maximum fold induction at any concentration relative to that of GS-E ligand; for Z3 assay Rel Max FI / EC50: HEK-293 Z3 cells; for EC50: read-out: Z3 assay EC50, β-galactosidase reporter
T1 sequence (P49881 86-606): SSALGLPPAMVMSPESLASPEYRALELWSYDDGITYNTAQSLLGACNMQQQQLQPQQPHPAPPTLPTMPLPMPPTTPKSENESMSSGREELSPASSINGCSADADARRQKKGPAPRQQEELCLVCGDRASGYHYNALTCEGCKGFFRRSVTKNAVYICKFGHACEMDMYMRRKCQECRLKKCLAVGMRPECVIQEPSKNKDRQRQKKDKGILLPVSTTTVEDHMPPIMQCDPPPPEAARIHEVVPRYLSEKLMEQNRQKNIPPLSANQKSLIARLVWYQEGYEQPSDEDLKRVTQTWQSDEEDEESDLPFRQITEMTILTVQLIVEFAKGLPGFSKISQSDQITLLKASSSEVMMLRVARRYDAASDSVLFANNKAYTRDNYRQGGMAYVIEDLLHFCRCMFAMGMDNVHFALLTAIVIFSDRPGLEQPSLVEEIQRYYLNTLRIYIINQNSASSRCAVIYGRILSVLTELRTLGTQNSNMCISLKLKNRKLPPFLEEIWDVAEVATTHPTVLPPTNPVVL
T1 sequence (P19793 1-462 partner): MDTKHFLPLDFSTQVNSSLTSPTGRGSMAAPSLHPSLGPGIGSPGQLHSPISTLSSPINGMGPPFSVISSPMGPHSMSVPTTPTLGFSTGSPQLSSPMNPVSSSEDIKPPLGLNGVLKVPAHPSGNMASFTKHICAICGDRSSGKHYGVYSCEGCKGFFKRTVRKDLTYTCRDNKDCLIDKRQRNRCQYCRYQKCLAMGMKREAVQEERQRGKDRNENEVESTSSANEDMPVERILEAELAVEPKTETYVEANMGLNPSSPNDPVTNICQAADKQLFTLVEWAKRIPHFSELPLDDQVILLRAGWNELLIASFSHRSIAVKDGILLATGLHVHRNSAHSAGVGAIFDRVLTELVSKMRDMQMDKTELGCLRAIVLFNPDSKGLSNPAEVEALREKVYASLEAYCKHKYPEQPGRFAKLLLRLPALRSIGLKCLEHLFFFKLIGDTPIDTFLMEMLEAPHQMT

| SMILES | Fold Induction, 13B3 Assay, 3.3 uM [1] | Fold Induction, 13B3 Assay, 33 uM [1] | 13B3 assay Rel Max FI [1] | EC50 [1] [nM] | Fold Induction, Z3 Assay, 3.3 uM [2] | Fold Induction, Z3 Assay, 33 uM [2] | Z3 assay Rel Max FI [2] | EC50 [2] [nM] |
| --- | --- | --- | --- | --- | --- | --- | --- | --- |
| CCc1ccc(C(=O)NN(C(=O)c2cc(C)cc(Cl)c2)C(C)(C)C)cc1 [RG-101774] | 987 | 526 | 0.657 | 327 | 631 | 429 | 0.943 | 155 |
| CCc1ccc(C(=O)NN(C(=O)c2cc(C)c(C)c(Cl)c2)C(C)(C)C)cc1 [RG-101863] | 3187 | 207 | 0.837 | 728 | 832 | 374 | 0.953 | 257 |
| CCc1ccc(C(=O)NN(C(=O)c2cc(C)cc(C)c2)C(C)(C)C)cc1Cl [RG-101864] | 5959 | 349 | 0.460 | 288 | 796 | 494 | 1.075 | 245 |
| Cc1cc(C)cc(C(=O)N(NC(=O)c2ccc3c(c2)CCCC3)C(C)(C)C)c1 [RG-101887] | 2462 | 542 | 0.579 | 861 | 1004 | 334 | 0.930 | 257 |
| C=Cc1c(OC)cccc1C(=O)NN(C(=O)c1cc(C)cc(C)c1)C(C)(C)C [RG-102021] | 4081 |  | 1.136 | 4040 | 417 |  | 0.920 | 513 |
| CCc1ccc(C(=O)NN(C(=O)c2ccccc2CC)C(C)(C)C)cc1 [RG-102592] | 194 | 909 | 0.684 | 4920 | 746 | 574 | 0.699 | 3890 |
| CCc1ccc(C(=O)NN(C(=O)c2cc(C)cc(C)c2)C(C)C(C)(C)C)cc1 (stereo not drawn) [RG-103451] | 576 | 661 | 0.742 | 208 | 67 | 118 | 1.054 | 83 |
| COCc1c(OC)cccc1C(=O)NN(C(=O)c1cc(C)cc(C)c1)C(C)(C)C [RG-115117] | 1 |  | 0 | > 50000 | 7 |  | 0.36 | 3930 |
